Laboratory results published in US6495593B1, “Compositions for preventing or treating adverse physiological effects associated with cardiac disease” (Dry Creek Nutrition, Inc., priority 1999, dated 2002).

Tests used:
[1] = In vitro hydroxyl radical scavenging assay (γ-irradiated coumarin-3-carboxylic acid); conditions: 1 mM; 10^-5 M CCA, γ-irradiation
Procedure: Aqueous solution of coumarin-3-carboxylic acid (CCA) was diluted in PBS buffer, pH 7.4 to give a final concentration of 10^−5 M. Polymethylmethacrylate cuvettes containing 2.5 mL CCA solution were irradiated with ^137Cs γ-ray (dose rate 1.14 Gy/min) (MDS Nordian., Ontario, Canada) at room temperature. […] Fluorescence was measured at room temperature with a Perkin Elmer LS 50 fluorimeter (excitation 400 nm, emission 450 nm) (Collins et al., “Coumarin Chemical Dosimeter for Radiation Therapy,” Med. Phys., 21: 1741-1747 (1994)). […] The scavenging activity of the proanthocyanidin extract was compared against 1 mM DMSO.

[2] = In vitro peroxyl radical scavenging assay (AAPH / 5-/6-carboxyfluorescein); conditions: 25 μg/mL; AAPH 2 mM
Procedure: Peroxyl radical scavenging activity was examined by adding proanthocyanidin to a peroxyl radical generating system (Makrigiorgos et al., “Novel Fluorescein-Based Flow Cytometric Method for Detection of Lipid Peroxidation,” Free Rad. Biol. Med., 22:93-100 (1997)). Peroxyl radicals were generated by dissolving 2,2′-azobis (2-amidinopropane) dihydrochloride (AAPH) in phosphate buffered saline (PBS) at 37° C. Scavenging activity of proanthocyanidin was compared with trolox (100 μM), a known peroxyl radical scavenger.

| Compound | induction of 7-OH-CCA formation (hydroxyl radical scavenging) [1] | peroxyl radical scavenging activity relative to proanthocyanidin 10 μg/mL [2] |
| --- | --- | --- |
| C[S+](C)[O-] [DMSO, dimethyl sulfoxide] | reduced the induction of 7-OH-CCA formation | – |
| Cc1c(C)c2c(c(C)c1O)CCC(C)(C(=O)O)O2 (centres unmarked) [trolox] | – | comparable |
